# Results published in ChEMBL document CHEMBL2413072, “Synthesis and in vitro anticancer studies of novel C-2 arylidene congeners of lantadenes” (2013).
# Key:
# Type in all cases: functional
# [1] = test system: K562; assay: Growth inhibition of human K562 cells assessed as cell growth at 10 uM by sulforhodamine B assay; conditions: read-out: Activity
# [2] = test system: MDA-MB-468; assay: Growth inhibition of human MDA-MB-468 cells assessed as growth inhibition at 10 uM by sulforhodamine B assay; conditions: read-out: GI
# [3] = test system: T47D; assay: Growth inhibition of human T47D cells assessed as growth inhibition at 10 uM by sulforhodamine B assay; conditions: read-out: GI
# [4] = Growth inhibition of human Hs 578T cells assessed as growth inhibition at 10 uM by sulforhodamine B assay; conditions: read-out: GI
# [5] = test system: PC-3; assay: Growth inhibition of human PC3 cells assessed as growth inhibition at 10 uM by sulforhodamine B assay; conditions: read-out: GI
# [6] = test system: TK-10; assay: Growth inhibition of human TK10 cells assessed as growth inhibition at 10 uM by sulforhodamine B assay; conditions: read-out: GI
# [7] = test system: RXF 393; assay: Growth inhibition of human RXF393 cells assessed as growth inhibition at 10 uM by sulforhodamine B assay; conditions: read-out: GI
# [8] = test system: MOLT-4; assay: Growth inhibition of human MOLT4 cells assessed as cell growth at 10 uM by sulforhodamine B assay; conditions: read-out: Activity
# [9] = test system: HL-60(TB); assay: Growth inhibition of human HL-60(TB) cells assessed as cell growth at 10 uM by sulforhodamine B assay; conditions: read-out: Activity
# [10] = test system: SK-MEL-28; assay: Growth inhibition of human SK-MEL-28 cells assessed as growth inhibition at 10 uM by sulforhodamine B assay; conditions: read-out: GI
# [11] = test system: MDA-MB-435; assay: Growth inhibition of human MDA-MB-435 cells assessed as growth inhibition at 10 uM by sulforhodamine B assay; conditions: read-out: GI
# [12] = test system: M14; assay: Growth inhibition of human M14 cells assessed as growth inhibition at 10 uM by sulforhodamine B assay; conditions: read-out: GI
# [13] = test system: LOX IMVI; assay: Growth inhibition of human LOXIMVI cells assessed as growth inhibition at 10 uM by sulforhodamine B assay; conditions: read-out: GI
# [14] = test system: Malme-3M; assay: Growth inhibition of human MALME-3M cells assessed as growth inhibition at 10 uM by sulforhodamine B assay; conditions: read-out: GI
# [15] = test system: U-251; assay: Growth inhibition of human U251 cells assessed as growth inhibition at 10 uM by sulforhodamine B assay; conditions: read-out: GI
# [16] = test system: SNB-19; assay: Growth inhibition of human SNB19 cells assessed as growth inhibition at 10 uM by sulforhodamine B assay; conditions: read-out: GI
# [17] = test system: SF-295; assay: Growth inhibition of human SF295 cells assessed as growth inhibition at 10 uM by sulforhodamine B assay; conditions: read-out: GI
# [18] = test system: SF-268; assay: Growth inhibition of human SF268 cells assessed as growth inhibition at 10 uM by sulforhodamine B assay; conditions: read-out: GI
# [19] = test system: HCT-15; assay: Growth inhibition of human HCT15 cells assessed as growth inhibition at 10 uM by sulforhodamine B assay; conditions: read-out: GI
# [20] = Growth inhibition of human HCC2998 cells assessed as growth inhibition at 10 uM by sulforhodamine B assay; conditions: HCC 2998, read-out: GI
# [21] = test system: NCI-H522; assay: Growth inhibition of human NCI-H522 cells assessed as growth inhibition at 10 uM by sulforhodamine B assay; conditions: read-out: GI
# [22] = test system: NCI-H322M; assay: Growth inhibition of human NCI-H322M cells assessed as growth inhibition at 10 uM by sulforhodamine B assay; conditions: read-out: GI
# [23] = test system: NCI-H226; assay: Growth inhibition of human NCI-H226 cells assessed as growth inhibition at 10 uM by sulforhodamine B assay; conditions: read-out: GI
# [24] = test system: HOP-92; assay: Growth inhibition of human HOP92 cells assessed as growth inhibition at 10 uM by sulforhodamine B assay; conditions: read-out: GI
# [25] = test system: A549; assay: Growth inhibition of human A549/ATCC cells assessed as growth inhibition at 10 uM by sulforhodamine B assay; conditions: read-out: GI
# [26] = test system: RPMI-8226; assay: Growth inhibition of human RPMI8226 cells assessed as growth inhibition at 10 uM by sulforhodamine B assay; conditions: read-out: GI
# [27] = test system: MOLT-4; assay: Growth inhibition of human MOLT4 cells assessed as growth inhibition at 10 uM by sulforhodamine B assay; conditions: read-out: GI
# [28] = test system: K562; assay: Growth inhibition of human K562 cells assessed as growth inhibition at 10 uM by sulforhodamine B assay; conditions: read-out: GI
# [29] = test system: CCRF-CEM; assay: Growth inhibition of human CCRF-CEM cells assessed as growth inhibition at 10 uM by sulforhodamine B assay; conditions: read-out: GI
# [30] = test system: MCF7; assay: Growth inhibition of human MCF7 cells assessed as cell growth at 10 uM by sulforhodamine B assay; conditions: read-out: Activity
# [31] = test system: DU-145; assay: Growth inhibition of human DU145 cells assessed as cell growth at 10 uM by sulforhodamine B assay; conditions: read-out: Activity
# [32] = test system: PC-3; assay: Growth inhibition of human PC3 cells assessed as cell growth at 10 uM by sulforhodamine B assay; conditions: read-out: Activity
# [33] = test system: A498; assay: Growth inhibition of human A498 cells assessed as cell growth at 10 uM by sulforhodamine B assay; conditions: read-out: Activity
# [34] = test system: OVCAR-5; assay: Growth inhibition of human OVCAR5 cells assessed as cell growth at 10 uM by sulforhodamine B assay; conditions: read-out: Activity
# [35] = test system: OVCAR-4; assay: Growth inhibition of human OVCAR4 cells assessed as cell growth at 10 uM by sulforhodamine B assay; conditions: read-out: Activity
# [36] = test system: UACC-257; assay: Growth inhibition of human UACC257 cells assessed as cell growth at 10 uM by sulforhodamine B assay; conditions: read-out: Activity
# [37] = test system: UACC-62; assay: Growth inhibition of human UACC62 cells assessed as cell growth at 10 uM by sulforhodamine B assay; conditions: read-out: Activity
# [38] = test system: SK-MEL-28; assay: Growth inhibition of human SK-MEL-28 cells assessed as cell growth at 10 uM by sulforhodamine B assay; conditions: read-out: Activity
# [39] = test system: SK-MEL-2; assay: Growth inhibition of human SK-MEL-2 cells assessed as cell growth at 10 uM by sulforhodamine B assay; conditions: read-out: Activity
# [40] = test system: M14; assay: Growth inhibition of human M14 cells assessed as cell growth at 10 uM by sulforhodamine B assay; conditions: read-out: Activity
# [41] = test system: Malme-3M; assay: Growth inhibition of human MALME-3M cells assessed as cell growth at 10 uM by sulforhodamine B assay; conditions: read-out: Activity
# [42] = test system: U-251; assay: Growth inhibition of human U251 cells assessed as cell growth at 10 uM by sulforhodamine B assay; conditions: read-out: Activity
# [43] = test system: SW-620; assay: Growth inhibition of human SW620 cells assessed as cell growth at 10 uM by sulforhodamine B assay; conditions: read-out: Activity
# [44] = test system: HCT-15; assay: Growth inhibition of human HCT15 cells assessed as cell growth at 10 uM by sulforhodamine B assay; conditions: read-out: Activity
# [45] = test system: NCI-H322M; assay: Growth inhibition of human NCI-H322M cells assessed as cell growth at 10 uM by sulforhodamine B assay; conditions: read-out: Activity
# [46] = test system: NCI-H226; assay: Growth inhibition of human NCI-H226 cells assessed as cell growth at 10 uM by sulforhodamine B assay; conditions: read-out: Activity
# [47] = test system: HOP-92; assay: Growth inhibition of human HOP92 cells assessed as cell growth at 10 uM by sulforhodamine B assay; conditions: read-out: Activity
# [48] = test system: A549; assay: Growth inhibition of human A549/ATCC cells assessed as cell growth at 10 uM by sulforhodamine B assay; conditions: read-out: Activity
# [49] = test system: RPMI-8226; assay: Growth inhibition of human RPMI8226 cells assessed as cell growth at 10 uM by sulforhodamine B assay; conditions: read-out: Activity
structure (smiles),measurement,setting,value
CC1(C)C[C@@H](O)[C@]2(C(=O)O)CC[C@]3(C)C(=CC[C@@H]4[C@@]5(C)CCC(=O)C(C)(C)[C@@H]5CC[C@]43C)[C@@H]2C1,growth at 10 µM,[1],76.8%
same,inhibition of growth at 10 µM,[2],< 10%
same,inhibition of growth at 10 µM,[3],19.2%
same,inhibition of growth at 10 µM,[4],< 10%
same,inhibition of growth at 10 µM,[5],40.7%
same,inhibition of growth at 10 µM,[6],< 10%
same,inhibition of growth at 10 µM,[7],< 10%
same,growth at 10 µM,[8],78.7%
same,growth at 10 µM,[9],75.2%
same,inhibition of growth at 10 µM,[10],< 10%
same,inhibition of growth at 10 µM,[11],< 10%
same,inhibition of growth at 10 µM,[12],< 10%
same,inhibition of growth at 10 µM,[13],< 10%
same,inhibition of growth at 10 µM,[14],12.9%
same,inhibition of growth at 10 µM,[15],10.8%
same,inhibition of growth at 10 µM,[16],< 10%
same,inhibition of growth at 10 µM,[17],19.3%
same,inhibition of growth at 10 µM,[18],< 10%
same,inhibition of growth at 10 µM,[19],24.6%
same,inhibition of growth at 10 µM,[20],< 10%
same,inhibition of growth at 10 µM,[21],19.1%
same,inhibition of growth at 10 µM,[22],< 10%
same,inhibition of growth at 10 µM,[23],< 10%
same,inhibition of growth at 10 µM,[24],24.6%
same,inhibition of growth at 10 µM,[25],21%
same,inhibition of growth at 10 µM,[26],29.8%
same,inhibition of growth at 10 µM,[27],21.3%
same,inhibition of growth at 10 µM,[28],23.2%
same,inhibition of growth at 10 µM,[29],12.5%
same,growth at 10 µM,[30],81.4%
same,growth at 10 µM,[31],113%
same,growth at 10 µM,[32],59.3%
same,growth at 10 µM,[33],91.2%
same,growth at 10 µM,[34],108%
same,growth at 10 µM,[35],85.9%
same,growth at 10 µM,[36],91.2%
same,growth at 10 µM,[37],80.5%
same,growth at 10 µM,[38],98%
same,growth at 10 µM,[39],96%
same,growth at 10 µM,[40],93.4%
same,growth at 10 µM,[41],87.1%
same,growth at 10 µM,[42],89.2%
same,growth at 10 µM,[43],104%
same,growth at 10 µM,[44],75.4%
same,growth at 10 µM,[45],97.5%
same,growth at 10 µM,[46],103%
same,growth at 10 µM,[47],75.4%
same,growth at 10 µM,[48],79%
same,growth at 10 µM,[49],70.2%
